# Experimental data from patent US10774046B2, “Inhibitors for the treatment of cancer and related methods” (UNIVERSITY OF LOUISVILLE RESEARCH FOUNDATION, INC., priority 2017, dated 2020).
# Assays:
# human recombinant PFKFB4 = human recombinant PFKFB4 (Homo sapiens, UniProt Q16877); test: fructose-6-phosphate kinase activity of recombinant PFKFB4 (in vitro kinase assay); assay type: biochemical
# Protocol: The fructose-6-phosphate kinase activity of human recombinant PFKFB4 in the presence of DMSO±indicated 5MPN concentrations was assayed as previously described. The activity of 5MPN against 97 kinases was examined using a commercially available active-site dependent competition binding assay core service (KINOMEscanEDGE) that quantifies the capacity of test agents to compete with an immobilized, active-site directed ligand using a DNA-tagged kinase and immobilized ligand and compound. For example, enzyme inhibition was studied using an ADP-Glo assay. The effect of MPN-2 on the activity of recombinant human PFKFB4 enzyme was examined in an ADP-Glo assay (Promega), which measures ADP formed from a kinase reaction. ADP is converted into ATP, which is converted into light by a luciferase. PFKFB4 protein was exposed to MPN-2 at indicated concentrations in the presence of ATP and fructose-6-phosphate and following manufacturer's instructions, ADP-Glo and kinase detections reagents were added. The data are shown as the decrease in luminescence caused by MPN-2 relative to DMSO.
# H460 cells [1] = test: cell cycle analysis by flow cytometry; assay type: cell-based, human
# Protocol: (§1) To measure apoptosis, cells were stained with annexin V and propidium iodide and examined as previously described. For example, H460 cells were exposed to increasing concentrations of the PFKFB4 inhibitor (MPN-2), the PFKFB3 inhibitor PFK15 (Tocris) or both and viable cells were counted at 24, 48 and 72 hours. DMSO used as vehicle. For cell cycle experiments, cells were detached, washed with cold PBS and fixed in 70% ethanol (4° C., 30 minutes). The cells then were pelleted by centrifugation, resuspended in PBS containing PI and RNase A, incubated at 37° C. in the dark for 30 minutes and analyzed by flow cytometry (BD FACSCalibur). Data were analyzed using FlowJo software (TREE STAR Inc.). Results were calculated as the mean±SD of three experiments. The effects (Fa values) of the series of concentrations of MPN-2 and PFK-15 were examined individually and in combination at a constant ratio of 1:1.
# [2] = two-week oral toxicity study; assay type: in vivo; conditions: 120 mg/kg PO for two weeks
# Protocol: Given the potential usefulness of oral administration in terms of cost and convenience, we elected to pursue this route in subsequent toxicity and efficacy pre-clinical studies. Initially, we dosed C57BL/6 mice with 120 mg/kg PO for two weeks and analyzed the effect on complete blood counts, electrolytes, hepatic and renal function, body mass and the gross and histological appearance of the brain, heart, lungs, liver, kidneys and spleen. […] Next, the effects of oral administration of 5MPN on intratumoral F2,6BP and glucose uptake by LLC xenografts was examined. There was a reduction in F2,6BP (FIG. 4E) and 2-[^18F]-fluoro-2-deoxyglucose uptake using positron emission tomography (FIG. 4F). It was confirmed that 5MPN caused a G1 arrest in LLC cells in vitro similar to H460 cells (FIG. 4G). The number of Ki67-positive cells was examined since Ki-67 expression correlated with later S and G2 phases of the cell cycle (SASAKI et al. “The cell cycle associated change of the Ki-67 reactive nuclear antigen expression” J Cell Physiol (1987) Vol. 133, No. 3, pp. 579-584).
# H460 cells [3] = test: apoptosis by flow cytometry (annexin V / propidium iodide); assay type: cell-based, human; conditions: H460, 10 μM 5MPN
# Protocol: as §1
# hT/LT/Ras cells = test: cell growth of transformed cells, live cell count; assay type: cell-based, human; conditions: live cells at 48 hours
# Description: H460, H1299, H441, H522 and A549 non-small cell lung cancer (NSCLC), MDA-MB-231 (breast), LNCaP (prostatic) and HCT116 (colon) adenocarcinoma and Lewis lung carcinoma (LLC) cell lines were obtained from ATCC and used within 6 months of acquisition. PFKFB4^−/− ear pinna fibroblasts isolated from TamCre/loxP/PFKFB4^−/− mice were immortalized as described previously (Chesney J et al. Fructose-2,6-bisphosphate synthesis by 6-phosphofructo-2-kinase/fructose-2,6-bisphosphatase 4 (PFKFB4) is required for the glycolytic response to hypoxia and tumor growth. Oncotarget 2014 Aug. 30; 5(16):6670-86). Normal bronchial epithelial cells (NHBE) were obtained from Lonza and NHBE cells expressing telomerase, SV40 large T antigen and activated Ras (hT/LT/Ras) were a gift from Dr. B. J. Rollins, Dana Farber Cancer Institute. All cell lines were tested and found negative for mycoplasma (PCR Mycoplasma Detection Kit, ABM). Cell lines were grown in DMEM (A549, LNCaP, MDA-MB-231, LLC and PFKFB4^−/−), RPMI 1640 (H460, H1299, H441, H522) and McCoy's 5A media (HCT116) (all from Invitrogen) containing 10% fetal calf serum (Hyclone). […]
# Cells were incubated in 20% trypan blue (Sigma) for 5 minutes. Cells excluding trypan blue were counted using a standard hemocytometer (Hausser Scientific) to determine total numbers of viable cells. Data are expressed as mean±SD of three experiments.
# [4] = test system: H460 human lung adenocarcinoma xenografts; test: H460 xenograft growth in athymic mice; assay type: in vivo, BALB/c athymic mice
# cancer cells = test: anchorage independent growth as colonies in soft agar; assay type: cell-based; conditions: increasing concentrations
# Protocol: Method: Cancer cells were plated in soft agar and the effects of increasing concentrations of Formula (VIII) on anchorage independent growth was examined. Briefly, a feeder layer of 0.6% agarose (Agar Noble, Becton Dickinson) in RPMI with 10% fetal bovine serum was plated in 6 cm plates containing vehicle (DMSO) or increasing concentrations of Formula (VIII). 1×10^4 cells were re-suspended in 0.3% agarose in RPMI/10% serum containing DMSO or increasing concentrations of Formula (VIII) and plated on top of the feeder layer. Cells were allowed to grow at 37° C. in 5% CO2 and agarose-containing media with DMSO+/−Formula (VIII) was replenished every 5 days until colonies became visible. Colonies were stained with MTT [3-(4,5-dimethylthiazol-2-yl)-2,5-diphenyl tetrazolium bromide] and counted in four random 1 cm^2 areas per plate under 40× magnification and enumerated.
# human cancer cell lines = test: proliferation, viable cell count by trypan blue exclusion; assay type: cell-based; conditions: counts at 48 hours shown
# Protocol: Method: Cells were plated in 24 well plates and exposed to increasing concentrations of Formula (VIII). DMSO was used as a vehicle. After 24, 48 and 72 hours of exposure, cells were detached, and viable cells were counted by Trypan blue exclusion (representative counts at 48 hours shown).
# Chain of human recombinant PFKFB4 (Q16877 whole entry): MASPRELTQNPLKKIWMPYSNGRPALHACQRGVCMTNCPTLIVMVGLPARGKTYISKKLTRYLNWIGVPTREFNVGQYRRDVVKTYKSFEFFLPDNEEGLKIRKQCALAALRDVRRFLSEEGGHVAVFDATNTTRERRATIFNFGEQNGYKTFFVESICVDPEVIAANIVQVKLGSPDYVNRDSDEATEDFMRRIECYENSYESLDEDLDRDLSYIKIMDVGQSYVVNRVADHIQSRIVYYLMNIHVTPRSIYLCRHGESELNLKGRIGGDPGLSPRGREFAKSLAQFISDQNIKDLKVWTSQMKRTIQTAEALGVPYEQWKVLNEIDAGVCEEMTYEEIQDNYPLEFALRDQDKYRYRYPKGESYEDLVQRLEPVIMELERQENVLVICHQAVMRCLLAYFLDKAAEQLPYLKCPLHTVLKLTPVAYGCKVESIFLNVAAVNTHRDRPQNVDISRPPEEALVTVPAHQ
Structure (SMILES),"type of inhibition (Lineweaver-Burk analyses) (human recombinant PFKFB4; as a function of F6P concentration, FIG. 1D)","PFKFB4 activity (human recombinant PFKFB4; kinase activity of recombinant PFKFB4, FIG. 1C)","cell cycle distribution (H460 cells [1]; H460, 10 μM 5MPN)","effect of overexpression of PFKFB4 on G1 arrest (H460 cells [1]; H460 transfected with PFKFB4, 10 μM 5MPN, 24 hours)","signs of toxicity (blood counts, electrolytes, hepatic and renal function, body mass, histology, behavior) [2]",apoptotic cells (H460 cells [3]),cell growth of transformed cells (hT/LT/Ras cells),tumor growth ([4]; 5MPN 120 mg/kg oral daily),"body weight ([4]; H460-bearing athymic mice, 120 mg/kg oral daily)",anchorage independent growth (soft agar colonies) (cancer cells),proliferation (cell counts relative to DMSO) (human cancer cell lines)
"COc1cccc2c(NCCCCCO[N+](=O)[O-])ccnc12 [5MPN, 5-[(8-methoxyquinolin-4-yl)amino]pentyl nitrate]",competitive inhibitor of the F6P binding site,inhibited PFKFB4 activity,G1 arrest,reversed,no signs of toxicity,increase in apoptotic cells,suppressed,suppressed the growth,without affecting body weight,–,–
"COc1cccc2c(NCCCCCNC(=O)C(F)(F)F)ccnc12 [Formula (VIII), 2,2,2-trifluoro-N-(5-((8-methoxyquinolin-4-yl)amino)pentyl)acetamide]",–,–,–,–,–,–,–,–,–,inhibited the growth of cancer cells as soft agar colonies,decreases the proliferation of human cancer cell lines in vitro with higher potency than 5MPN
